Patent US12391698B2, “Substituted piperidines and piperazines and methods for the treatment of CNS disorders” (SUVEN LIFE SCIENCES LIMITED, priority 2022, dated 2025)
Structures can show the parent of a compound that is named as a salt.

Assays:
Male CD1 mice = assay: Resident-intruder task; type: in vivo, mouse; conditions: 3.0 mg/kg, p.o., 30 min prior to trial
Description: Male CD1 mice of weight 20-35 g (Resident) and 15-25 g (Intruder) were used. Resident mice were habituated individually with an ovariectomized female mouse in each cage and intruders were habituated socially for 1 week. β-estradiol at a dose of 0.2 mg/kg, s.c. was administered to female mice during habituation. On day 1 and day 2, intruder was exposed to resident mouse in resident's home cage for a period of 10 min and duration of attack was measured. During this exposure, female mouse were removed from the cage. On day 4 from initial exposure, animals were randomized based on their duration of attacking and administered respective treatments. Test compound and vehicle were administered 30 min prior to the trial. After post dose interval resident mice were exposed to same intruder for 10 min and duration of attack was recorded. Resident intruder task models aggressive behavior.

Male Wistar rats [1] = assay: Effect on sleep/wake profile (EEG/EMG telemetry); type: in vivo, rat; conditions: 10 mg/kg, p.o., dosed 15 min prior to lights-off
Source text: Male Wistar rats were anesthetized with isoflurane (Baxter India Private Limited: 4% in oxygen for induction; 2% for maintenance) and were fixed into the stereotaxic frame (Stoelting, Illinois, USA) to perform surgery. An incision was made to reveal bregma from which coordinates were taken. Telemetric transmitter (Model F40-EET; DSI, St. Paul, MN, USA) was implanted into intraperitoneal cavity of the rats and leads were tunneled subcutaneously to the skull. One pair of electrodes were implanted epidurally into the frontal cortex region using stainless steel screws (CMA Microdialysis, Stockholm, Sweden) at coordinates of AP +3.2 mm, ML ±3.0 mm (Paxinos and Watson 2004) for recording of EEG and electrodes were fixed to the skull with dental acrylic cement (Dentalon® plus). The second set of lead wires were implanted into the neck nuchal muscle to record electromyogram (EMG). After a surgical recovery of minimum 3 weeks, animals were acclimatized to the handling procedures and were given a mock dosing for 3 days before the first experimental day.
One hour prior to lights-off, transmitter was switched on using a magnet and animals were transferred on to the receiver along with the home cage. […]
The amount of time spent in wake was determined for every 30 min and comparison between treatments was done using Bonferroni's post test.

Rats = assay: Tardive dyskinesia test (vacuous chewing movements and tongue protrusions); type: in vivo, rat; conditions: 10 mg/kg, p.o. (5 mg twice a day) for 4 weeks
Description: Rats weighing 200-230 g were acclimatized to the plexiglass observation cages (30×20×30 cm) equipped with mirrors for 5 min. After acclimatization, basal vacuous chewing movements (VCMs) and tongue protrusions (TPs) of the rats were quantified manually for 5 min. Rats were randomized based on the basal readings. Rats received a single dose of sesame oil (vehicle treatment) or haloperidol decanoate (38 mg/kg, i.m. positive control). Example-2, 10 mg/kg, p.o. ([…]) was administered for 4 weeks. VCMs and TPs were scored on weekly basis for 4 weeks. Tardive dyskinesia is a side effect of antipsychotic medications.

Male Wistar rats [2] = assay: DOI-induced head twitch response; type: in vivo, rat; conditions: 3.0 mg/kg, s.c., 30 min prior to DOI
Description: On day 1 male Wistar rats (220-250 g) were habituated in a circular cylinder for a period of 15 min. On day 2, the rats were brought to the experimental room 30 min prior to the experiment. All the animals were administered with respective formulations i.e. vehicle or test compound 30 min prior to DOI or vehicle administration. Immediately following DOI or vehicle administration, the animals were kept in the circular cylinder for a period of 10 min to score the head twitches. Compounds which act as 5-HT2A antagonists attenuate DOI-induced head twitches.

Male Wistar rats [3] = assay: MK-801-induced amnesia in novel object recognition task (NORT); type: in vivo, rat; conditions: 0.3 mg/kg, p.o., MK-801 0.03 mg/kg, i.p.
Description: Male Wistar rats of 230-280 g body weight were used. Rats were weighed and randomized according to their body weights. On day 1, animals were habituated to the arenas for 45 min. On day 2, 30 min before the trial-1 animals were administered with vehicle (WFI) or test compound and 20 min before the trial-1 the animals were administered with MK-801 0.03 mg/kg, i.p. Trial-1 is familiarization task in the arena with two similar kind of silver color flasks of same dimensions for a period of 3 min. After an inter trial interval of 90 min animals were subjected to recognition task in the arena with one silver and one violet bottle for a period of 3 min. Time spent by the rats with either familiar or novel objects was noted and analyzed. MK-801-induced amnesia in novel object recognition task models cognitive deficits associated with schizophrenia.

Male Swiss albino mice = assay: Forced swim test; type: in vivo, mouse; conditions: 10 mg/kg, p.o., 30 min after treatment
Description: Male Swiss albino mice having weight range of 30-40 g were used. Mice were dosed with vehicle or test compound. Thirty min after treatment, animals were individually placed inside the plexiglass cylinder (40 cm height×17 cm width) for 6 min. The depth of water (24±1° C.) was maintained at 18 cm. The immobility of the mice during the last 4 min were recorded in the 6 min trial. Forced swim test assesses antidepressant like effects of test compounds.

[4] = target: T1, recombinant human 5-HT2A receptor (Homo sapiens, UniProt P28223); assay: Determination of Kb at 5-HT2A receptor, pCRE-Luc reporter gene assay in CHO cells; type: cell-based
T1 construct: expressed in transfected cells
T1 sequence (P28223 whole entry): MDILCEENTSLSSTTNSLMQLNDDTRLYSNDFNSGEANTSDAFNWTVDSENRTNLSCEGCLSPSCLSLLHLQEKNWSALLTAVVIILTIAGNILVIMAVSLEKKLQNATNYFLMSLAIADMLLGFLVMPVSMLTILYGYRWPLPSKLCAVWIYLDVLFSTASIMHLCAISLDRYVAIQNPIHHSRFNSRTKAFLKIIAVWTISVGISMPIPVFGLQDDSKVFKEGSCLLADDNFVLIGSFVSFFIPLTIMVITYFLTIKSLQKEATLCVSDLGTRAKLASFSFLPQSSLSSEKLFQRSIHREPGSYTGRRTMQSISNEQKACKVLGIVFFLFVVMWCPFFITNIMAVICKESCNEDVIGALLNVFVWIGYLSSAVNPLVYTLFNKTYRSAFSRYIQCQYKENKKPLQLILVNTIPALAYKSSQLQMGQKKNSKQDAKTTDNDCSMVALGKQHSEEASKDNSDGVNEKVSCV
Description: A stable CHO cell line expressing recombinant human 5-HT2A receptor and pCRE-Luc reporter system was used for cell-based assay. The assay offers a non-radioactive based approach to determine binding of a compound to GPCRs. In this specific assay, the level of intracellular cAMP which is modulated by activation or inhibition of the receptor was measured. The recombinant cells harbor luciferase reporter gene under the control of cAMP response element.
The above cells were grown in 96 well clear bottom white plates in Hams F12 medium containing 10% fetal bovine serum (FBS). Prior to the addition of compounds or standard agonist, cells were serum starved overnight. Increasing concentrations of test compound were added along with 1 μM of serotonin in Opti-MEM medium to the cells. The incubation was continued at 37° C. in CO2 incubator for 4 hours. Medium was removed and cells were washed with phosphate buffered saline. The cells were lysed and luciferase activity was measured in a Luminometer. Luminescence units were plotted against the compound concentrations using GraphPad Prism software. EC50 values of the compounds were defined as the concentration required in reducing the luciferase activity by 50%. The Kb values were calculated by feeding the concentration of agonist used in the assay and its EC50 value in the same software.

`O=C1C[C@@H]2CCCN2C(=O)N1CCCCN1CCN(c2nsc3ccccc23)CC1` [Example 2, 2-[4-(4-Benzo[d]isothiazol-3-yl-piperazin-1-yl)-butyl]-tetrahydro-pyrrolo[1,2-c]pyrimidine-1,3-dione oxalate] was tested, and the “Inference, resident intruder task (duration of attack)” value (Male CD1 mice) was “Active”, the “change in percent time wake” value (Male Wistar rats [1]) was “no change” and the “Inference, tardive dyskinesia like symptoms (VCMs and TPs)” value (Rats) was “Example-2 did not show tardive”. The “Inference, DOI-induced head twitch response” value (Male Wistar rats [2]) was “Active”, the “Inference, MK-801-induced amnesia in NORT” value (Male Wistar rats [3]) was “Active” and the “Inference, mice forced swim test” value (Male Swiss albino mice) was “Active”. The “agonist activity at human recombinant 5-HT2A receptor” value ([4]; pCRE-Luc reporter gene assay) was “no detectable agonist activity”, the “antagonistic activity at human recombinant 5-HT2A receptor” value ([4]; pCRE-Luc reporter gene assay) was “antagonistic activity” and the Kb ([4]; with 1 μM serotonin, luciferase readout) was 8 nM.
